Assay results from US20040197824A1, “Method for selective radioactive marking of peptides” (priority 2002, published 2004).

How the values were obtained:
Y-receptor Y2 = molecular target: T1, Y-receptor Y2 (Homo sapiens, UniProt P49146); experiment: competitive binding studies at the Y2 receptor; details: FIG. 9
T1 sequence (P49146 1-381): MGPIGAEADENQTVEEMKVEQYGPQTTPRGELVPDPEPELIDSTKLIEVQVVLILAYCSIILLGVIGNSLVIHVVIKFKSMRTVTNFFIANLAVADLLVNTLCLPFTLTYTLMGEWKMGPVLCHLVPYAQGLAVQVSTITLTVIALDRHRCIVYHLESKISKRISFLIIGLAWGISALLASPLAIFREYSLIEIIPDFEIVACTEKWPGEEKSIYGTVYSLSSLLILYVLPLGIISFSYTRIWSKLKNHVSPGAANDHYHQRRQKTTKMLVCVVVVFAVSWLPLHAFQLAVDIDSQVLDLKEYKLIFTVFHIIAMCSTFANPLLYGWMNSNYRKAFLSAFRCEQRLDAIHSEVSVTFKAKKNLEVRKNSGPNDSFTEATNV
Method: (§1) The performance of the binding assays was performed as previously described.^(5)

Y-receptor Y5 = molecular target: T2, Y-receptor Y5 (Homo sapiens, UniProt Q15761); experiment: competitive binding studies at the Y5 receptor; details: FIG. 9
T2 sequence (Q15761 1-445): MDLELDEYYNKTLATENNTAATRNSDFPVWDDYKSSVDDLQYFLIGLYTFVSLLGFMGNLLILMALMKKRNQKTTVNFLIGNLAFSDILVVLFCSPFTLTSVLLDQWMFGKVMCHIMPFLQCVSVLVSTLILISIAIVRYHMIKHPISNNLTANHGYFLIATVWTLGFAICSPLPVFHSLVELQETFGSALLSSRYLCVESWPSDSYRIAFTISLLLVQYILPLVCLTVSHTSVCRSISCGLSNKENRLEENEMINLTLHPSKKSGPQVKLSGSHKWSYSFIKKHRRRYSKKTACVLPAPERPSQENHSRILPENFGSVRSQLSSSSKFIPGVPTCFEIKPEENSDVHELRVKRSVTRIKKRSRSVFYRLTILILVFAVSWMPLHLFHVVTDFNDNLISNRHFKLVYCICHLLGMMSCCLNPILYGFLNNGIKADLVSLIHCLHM
Method: as §1

Y-receptor Y1 = molecular target: T3, Y-receptor Y1 (Homo sapiens, UniProt P25929); experiment: competitive binding studies at the Y1 receptor; details: FIG. 9
T3 sequence (P25929 1-384): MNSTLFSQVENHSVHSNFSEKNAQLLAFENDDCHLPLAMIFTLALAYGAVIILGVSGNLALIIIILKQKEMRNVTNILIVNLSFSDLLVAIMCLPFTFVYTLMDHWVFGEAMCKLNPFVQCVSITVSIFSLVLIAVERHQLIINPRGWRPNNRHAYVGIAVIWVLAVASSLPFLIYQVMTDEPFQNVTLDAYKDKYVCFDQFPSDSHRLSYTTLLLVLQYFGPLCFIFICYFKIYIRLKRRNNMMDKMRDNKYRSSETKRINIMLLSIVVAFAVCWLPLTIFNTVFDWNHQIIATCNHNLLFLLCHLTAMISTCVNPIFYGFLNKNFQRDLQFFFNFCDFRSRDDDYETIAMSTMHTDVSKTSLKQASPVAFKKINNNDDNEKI
Method: as §1

PTH1-receptor = PTH1-receptor (Homo sapiens, UniProt Q03431); experiment: competitive binding study at PTH1-receptor; details: radio ligand concentration of 1 nM; FIG. 15
PTH1-receptor, sequence (Q03431 27-593): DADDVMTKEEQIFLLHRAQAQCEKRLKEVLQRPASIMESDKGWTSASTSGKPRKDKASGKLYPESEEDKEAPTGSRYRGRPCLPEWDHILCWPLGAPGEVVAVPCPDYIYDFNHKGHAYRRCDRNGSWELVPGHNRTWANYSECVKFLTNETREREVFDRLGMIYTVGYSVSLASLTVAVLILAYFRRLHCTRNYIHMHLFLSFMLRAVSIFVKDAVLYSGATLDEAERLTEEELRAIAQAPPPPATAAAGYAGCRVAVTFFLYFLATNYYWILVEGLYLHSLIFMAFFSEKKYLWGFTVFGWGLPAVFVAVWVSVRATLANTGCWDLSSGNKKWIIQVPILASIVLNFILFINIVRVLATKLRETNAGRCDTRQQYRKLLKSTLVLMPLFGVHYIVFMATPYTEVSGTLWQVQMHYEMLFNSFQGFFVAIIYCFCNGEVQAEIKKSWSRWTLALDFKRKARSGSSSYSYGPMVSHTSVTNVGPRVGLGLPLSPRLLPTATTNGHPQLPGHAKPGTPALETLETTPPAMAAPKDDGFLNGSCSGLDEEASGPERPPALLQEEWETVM

Compound | behavior in competitive binding in comparison to commercially available ^3H-NPY (Y-receptor Y2) | behavior in competitive binding in comparison to commercially available ^3H-NPY (Y-receptor Y5) | behavior in competitive binding in comparison to commercially available ^3H-NPY (Y-receptor Y1) | behavior in competitive binding relative to non-marked PTH (1-34)-amide (PTH1-receptor)
^3H-proprionyl-Lys^4-NPY [^3H-NPY] | identical behavior | identical behavior | identical behavior | 
[3H]CC([3H])C(=O)NCCCC[C@H](NC(=O)CNC(=O)[C@H](CC(C)C)NC(=O)[C@H](CC(N)=O)NC(=O)[C@H](Cc1c[nH]cn1)NC(=O)[C@H](CCSC)NC(=O)[C@H](CC(C)C)NC(=O)[C@H](CCC(N)=O)NC(=O)[C@@H](NC(=O)[C@H](CCC(=O)O)NC(=O)[C@H](CO)NC(=O)[C@@H](NC(=O)[C@@H](N)CO)C(C)C)[C@@H](C)CC)C(=O)N[C@@H](Cc1c[nH]cn1)C(=O)N[C@@H](CC(C)C)C(=O)N[C@@H](CC(N)=O)C(=O)N[C@@H](CO)C(=O)N[C@@H](CCSC)C(=O)N[C@@H](CCC(=O)O)C(=O)N[C@@H](CCCNC(=N)N)C(=O)N[C@H](C(=O)N[C@@H](CCC(=O)O)C(=O)N[C@@H](Cc1c[nH]c2ccccc12)C(=O)N[C@@H](CC(C)C)C(=O)N[C@@H](CCCNC(=N)N)C(=O)N[C@@H](CCCCN)C(=O)N[C@@H](CCCCN)C(=O)N[C@@H](CC(C)C)C(=O)N[C@@H](CCC(N)=O)C(=O)N[C@@H](CC(=O)O)C(=O)N[C@H](C(=O)N[C@@H](Cc1c[nH]cn1)C(=O)N[C@@H](CC(N)=O)C(=O)N[C@@H](Cc1ccccc1)C(N)=O)C(C)C)C(C)C (stereo partly shown) [PTH (1-34)-amide marked at position 13, ^3H-proprionyl-Lys^13-PTH(1-34)-amide] |  |  |  | nearly identical behavior
